# In patent publication US20250304563A1, “ACTIVATORS OF EFFECTOR T CELLS” (Orum Therapeutics, Inc., priority 2022, published 2025):
# What was measured:
# Human primary T cells [1] = test: T cell activation: CD69 surface expression by flow cytometry; format: cell-based; details: fold over anti-CD3 stimulated background normalized to Compound 141A; for CD69 1 nM: 1 nM compound; for CD69 10 nM: 10 nM compound; for CD69 100 nM: 100 nM compound
# Procedure, shortened: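 Read-out is flow-cytometric CD69 surface staining, expressed as fold increase over anti-CD3-stimulated background and normalized to Compound 141A. Human pan T cells from PBMC or LeukoPaks were plated on OKT3-coated wells in serum-free XVivo-15. Compound dilutions were added for 48 h at 37° C, 5% CO2.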
# Human primary T cells [2] = test: T cell activation: secreted IFN-y; format: cell-based; details: 48 hours, fold over background normalized to Compound 141A; for IFN-y 1 nM: 1 nM compound; for IFN-y 10 nM: 10 nM compound; for IFN-y 100 nM: 100 nM compound
# Procedure, shortened: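 Values are binned ranges (A–D) of fold increase over anti-CD3/CD28 background, normalized to a reference compound, for IFN-γ in supernatants measured by bead array. Pan-T cells from donor PBMC or LeukoPaks were stimulated on anti-CD3-coated wells (10 μg/mL coating) in serum-free medium with compound for 48 h at 37 °C.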
# Human primary T cells [3] = test: T cell activation: secreted IL-2; format: cell-based; details: 48 hours, fold over background normalized to Compound 141A; for IL-2 1 nM: 1 nM compound; for IL-2 10 nM: 10 nM compound; for IL-2 100 nM: 100 nM compound
# Procedure, shortened: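 IL-2 values are fold over anti-CD3/CD28 background, normalized to a reference compound and sorted into ranges. They come from supernatants of human pan-T cells captured on anti-CD3-coated plates and exposed 48 h, 37° C., to duplicate compound dilutions, measured with cytometric beads.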
# [4] = target: Cbl-b (36-427 aa truncated form, N-terminus Avi-tag) (Homo sapiens (Human), UniProt Q13191); test: Cbl-b binding: TR-FRET displacement of BODIPY-FL probe
# Procedure, shortened: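 IC50 from loss of terbium–BODIPY-FL TR-FRET signal as compounds compete off a fluorescent Cbl-b inhibitor probe (1 uM) for 1 h at RT. Protein: N-Avi-tagged human Cbl-b 36-427 on streptavidin-terbium, 20 mM HEPES pH 7.5 buffer.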
# Chain of Cbl-b (36-427 aa truncated form, N-terminus Avi-tag) (Q13191 36-427): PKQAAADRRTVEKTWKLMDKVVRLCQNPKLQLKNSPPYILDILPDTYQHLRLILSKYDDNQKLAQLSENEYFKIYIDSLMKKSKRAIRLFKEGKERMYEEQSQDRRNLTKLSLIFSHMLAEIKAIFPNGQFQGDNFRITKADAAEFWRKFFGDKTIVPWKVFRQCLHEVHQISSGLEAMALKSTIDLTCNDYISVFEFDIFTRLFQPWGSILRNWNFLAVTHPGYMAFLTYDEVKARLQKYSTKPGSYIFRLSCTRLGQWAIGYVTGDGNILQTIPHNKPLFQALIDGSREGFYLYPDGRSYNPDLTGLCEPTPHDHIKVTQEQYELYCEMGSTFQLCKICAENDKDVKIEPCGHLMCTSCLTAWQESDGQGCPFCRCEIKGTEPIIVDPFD
IC50 [4] [nM],SMILES,CD69 1 nM (Human primary T cells [1]),CD69 10 nM (Human primary T cells [1]),CD69 100 nM (Human primary T cells [1]),IFN-y 1 nM (Human primary T cells [2]),IFN-y 10 nM (Human primary T cells [2]),IFN-y 100 nM (Human primary T cells [2]),IL-2 1 nM (Human primary T cells [3]),IL-2 10 nM (Human primary T cells [3]),IL-2 100 nM (Human primary T cells [3])
5.01 to 20,"CCSc1cc(C2(Cc3nncn3C)COC2)cc(N2Cc3c(C=O)cc(CN4CCC[C@H](C)C4)cc3C2=O)n1 [Compound 169, 2-[6-(ethylsulfanyl)-4-{3-[(4-methyl-1,2,4-triazol-3-yl)methyl]oxetan-3-yl}pyridin-2-yl]-6-{[(3S)-3-methylpiperidin-1-yl]methyl}-1-oxo-3H-isoindole-4-carbaldehyde]",C (values between 0.30 and 0.60: range “C”),C (values between 0.30 and 0.60: range “C”),C (values between 0.30 and 0.60: range “C”),C (values between 0.10 and 0.30: range “C”),B (values between 0.31 and 1.00: range “B;”),B (values between 0.31 and 1.00: range “B;”),C (values between 0.10 and 0.30: range “C”),C (values between 0.10 and 0.30: range “C”),C (values between 0.10 and 0.30: range “C”)
5.01 to 20,"C[C@H]1CCCN(Cc2cc3c(c(C(F)(F)F)c2)CN(c2cc(C4(Cc5nncn5C)COC4)cc(N4CCN(C(=O)CCCN=[N+]=[N-])CC4)n2)C3=O)C1 [Compound 136, (S)-2-(6-(4-(4-azidobutanoyl)piperazin-1-yl)-4-(3-((4-methyl-4H-1,2,4-triazol-3-yl)methyl)oxetan-3-yl)pyridin-2-yl)-6-((3-methylpiperidin-1-yl)methyl)-4-(trifluoromethyl)isoindolin-1-one]",,B (values between 0.61 and 0.80: range “B;”),A (values between 0.81 and 1.10: range “A”),C (values between 0.10 and 0.30: range “C”),B (values between 0.31 and 1.00: range “B;”),B (values between 0.31 and 1.00: range “B;”),C (values between 0.10 and 0.30: range “C”),B (values between 0.31 and 0.79: range “B”),B (values between 0.31 and 0.79: range “B”)
100 to 1000,"C[C@H]1CCCN(Cc2cc3c(c(C(F)(F)F)c2)CN(c2cc(C4(Cc5nncn5C)COC4)cc(C#N)n2)C3=O)C1 [Compound 115, 4-{3-[(4-methyl-1,2,4-triazol-3-yl)methyl]oxetan-3-yl}-6-(6-{[(3S)-3-methylpiperidin-1-yl]methyl}-1-oxo-4-(trifluoromethyl)-3H-isoindol-2-yl)pyridine-2-carbonitrile]",,C (values between 0.30 and 0.60: range “C”),B (values between 0.61 and 0.80: range “B;”),C (values between 0.10 and 0.30: range “C”),C (values between 0.10 and 0.30: range “C”),B (values between 0.31 and 1.00: range “B;”),C (values between 0.10 and 0.30: range “C”),C (values between 0.10 and 0.30: range “C”),B (values between 0.31 and 0.79: range “B”)
100 to 1000,"CCNc1cc(C2(c3nncn3C)CC(C)C2)cc(N2Cc3c(cc(CN4CCC[C@H](C)C4)cc3C(F)(F)F)C2=O)n1 (stereo partly drawn) [Compound 171, 2-[6-(ethylamino)-4-[(1r,3s)-3-methyl-1-(4-methyl-1,2,4-triazol-3-yl)cyclobutyl]pyridin-2-yl]-6-{[(3 S)-3-methylpiperidin-1-yl]methyl}-4-(trifluoromethyl)-3H-isoindol-1-one]",C (values between 0.30 and 0.60: range “C”),C (values between 0.30 and 0.60: range “C”),X (fold over background values between 1.11 and 1.6: range “X”),B (values between 0.31 and 1.00: range “B;”),B (values between 0.31 and 1.00: range “B;”),A (fold over background between 1.10 and 2.00: range “A”),C (values between 0.10 and 0.30: range “C”),C (values between 0.10 and 0.30: range “C”),B (values between 0.31 and 0.79: range “B”)
1 to 5,"C[C@H]1CCCN(Cc2cc3c(c(C(F)(F)F)c2)CN(c2cc(C4(Cc5nncn5C)COC4)cc(NCCN=[N+]=[N-])n2)C3=O)C1 [Compound 118, 2-{6-[(2-azidoethyl)amino]-4-{3-[(4-methyl-1,2,4-triazol-3-yl)methyl]oxetan-3-yl}pyridin-2-yl}-6-{[(3S)-3-methylpiperidin-1-yl]methyl}-4-(trifluoromethyl)-3H-isoindol-1-one]",,A (values between 0.81 and 1.10: range “A”),A (values between 0.81 and 1.10: range “A”),B (values between 0.31 and 1.00: range “B;”),A (fold over background between 1.10 and 2.00: range “A”),A (fold over background between 1.10 and 2.00: range “A”),B (values between 0.31 and 0.79: range “B”),B (values between 0.31 and 0.79: range “B”),A (between 0.80 and 1.40: range “A”)
5.01 to 20,"C[C@H]1CCCN(Cc2cc3c(c(C(F)(F)F)c2)CN(c2cc(C4(Cc5nncn5C)COC4)cc(SCCO)n2)C3=O)C1 [Compound 102, 2-{6-[(2-hydroxyethyl)sulfanyl]-4-{3-[(4-methyl-1,2,4-triazol-3-yl)methyl]oxetan-3-yl}pyridin-2-yl}-6-{[(3S)-3-methylpiperidin-1-yl]methyl}-4-(trifluoromethyl)-3H-isoindol-1-one]",,C (values between 0.30 and 0.60: range “C”),B (values between 0.61 and 0.80: range “B;”),C (values between 0.10 and 0.30: range “C”),C (values between 0.10 and 0.30: range “C”),B (values between 0.31 and 1.00: range “B;”),C (values between 0.10 and 0.30: range “C”),C (values between 0.10 and 0.30: range “C”),B (values between 0.31 and 0.79: range “B”)
1 to 5,"CCNc1cc(C2(c3nncn3C)CC(C)C2)cc(N2Cc3c(SC)cc(CN4CCC[C@H](C)C4)cc3C2=O)n1 (stereo partly drawn) [Compound 181, 2-[6-(ethylamino)-4-[(1r,3s)-3-methyl-1-(4-methyl-1,2,4-triazol-3-yl)cyclobutyl]pyridin-2-yl]-6-{[(3S)-3-methylpiperidin-1-yl]methyl}-4-(methylsulfanyl)-3H-isoindol-1-one]",C (values between 0.30 and 0.60: range “C”),B (values between 0.61 and 0.80: range “B;”),X (fold over background values between 1.11 and 1.6: range “X”),B (values between 0.31 and 1.00: range “B;”),B (values between 0.31 and 1.00: range “B;”),A (fold over background between 1.10 and 2.00: range “A”),D (values between 0.01 and 0.09: range “D.”),C (values between 0.10 and 0.30: range “C”),A (between 0.80 and 1.40: range “A”)

SMILES,IC50 [4] [nM],CD69 1 nM (Human primary T cells [1]),CD69 10 nM (Human primary T cells [1]),CD69 100 nM (Human primary T cells [1]),IFN-y 1 nM (Human primary T cells [2]),IFN-y 10 nM (Human primary T cells [2]),IFN-y 100 nM (Human primary T cells [2]),IL-2 1 nM (Human primary T cells [3]),IL-2 10 nM (Human primary T cells [3]),IL-2 100 nM (Human primary T cells [3])
"CCC(CC#N)Nc1cc(C2(Cc3nncn3C)COC2)cc(N2Cc3c(cc(CN4CCC[C@H](C)C4)cc3C(F)(F)F)C2=O)n1.O=C(O)C(F)(F)F (stereo partly drawn) [Compound 135, 3-((4-(3-((4-methyl-4H-1,2,4-triazol-3-yl)methyl)oxetan-3-yl)-6-(6-(((S)-3-methylpiperidin-1-yl)methyl)-1-oxo-4-(trifluoromethyl)isoindolin-2-yl)pyridin-2-yl)amino)pentanenitrile; trifluoroacetic acid]",5.01 to 20,,B (values between 0.61 and 0.80: range “B;”),A (values between 0.81 and 1.10: range “A”),C (values between 0.10 and 0.30: range “C”),B (values between 0.31 and 1.00: range “B;”),B (values between 0.31 and 1.00: range “B;”),C (values between 0.10 and 0.30: range “C”),B (values between 0.31 and 0.79: range “B”),B (values between 0.31 and 0.79: range “B”)
Cn1cnnc1CC1(c2cccc(NC(=O)c3cc(CN4CC[C@H](OCCCCCCNC(=O)CCN5C(=O)C=CC5=O)C4)cc(C4CC4)n3)c2)COC1 [Compound 200],5.01 to 20,,C (values between 0.30 and 0.60: range “C”),C (values between 0.30 and 0.60: range “C”),C (values between 0.10 and 0.30: range “C”),C (values between 0.10 and 0.30: range “C”),C (values between 0.10 and 0.30: range “C”),C (values between 0.10 and 0.30: range “C”),C (values between 0.10 and 0.30: range “C”),C (values between 0.10 and 0.30: range “C”)
